Consider eight compounds from US9550772B2, “Azaindole derivatives as multi kinase inhibitors” (ORIBASE PHARMA, priority 2012, dated 2017).

As usually defined, the EC50 is the concentration needed to bring the measured effect to its halfway point. Usually inhibition stands for how much of the control response was suppressed.

Like-named read-outs stand apart in the source and are kept apart here.

Test [1] relates to A549 cell line. Briefly: In vitro cell proliferation assay (MTT). Type of test: cell-based. The following applies: Homo sapiens, A549, 72 h, EC50 ≧ 1 μM, read-out: EC50, anti-proliferative activity. The method in brief:
(§1)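 MTT read-out after 72 hr exposure to escalating compound, 10 nM to 3 μM, in duplicate wells. Seeding 5×10^3 cells/well for tumour lines and 1×10^4 for HRMEC; EC50 derived by sigmoidal curve fitting, DMSO wells as 0% and 1% SDS wells as 100%.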

Test [2] has as its system HT29 cell line. Briefly: In vitro cell proliferation assay (MTT). Type of test: cell-based. Particulars: Homo sapiens, HT-29, HT29, 72 hr, EC50 ≧ 1 μM, read-out: EC50, anti-proliferative activity. The method in brief: as §1
In test [3] the test system is HUVEC cells. Briefly: In vitro cell proliferation assay (MTT). Format: cell-based. Particulars: Homo sapiens, 72 hr, read-out: EC50, anti-proliferative activity. The method in brief: as §1
In test [4] the test system is HuH7 cell line. Briefly: In vitro cell proliferation assay (MTT). Type of test: cell-based. Particulars: Homo sapiens, Huh-7, HuH7, 72 hr, read-out: EC50, anti-proliferative activity. The method in brief:
as §1

The subject of test [5] is HuCCT1 cell line. Briefly: In vitro cell proliferation assay (MTT). Type of test: cell-based. The following applies: Homo sapiens, HuCCT-1, HuCCT1, 72 hr, read-out: EC50, anti-proliferative activity. The method in brief:
as §1

Test [6] deals with HuH6 Clone 5 cell line. Briefly: In vitro cell proliferation assay (MTT). Type of test: cell-based. The following applies: HUH-6-clone5, HuH6 Clone 5, 72 hr, read-out: EC50, anti-proliferative activity. The method in brief: as §1
Test [7] deals with HepG2 cell line. Briefly: In vitro cell proliferation assay (MTT). Format: cell-based. Particulars: Homo sapiens, HepG2, 72 hr, read-out: EC50, anti-proliferative activity. The method in brief:
as §1

Test [8] concerns the target T1, BRAF (Homo sapiens, UniProt P15056).
T1 construct: purchased Invitrogen
Briefly: In vitro kinase assay (Z'-LYTE, Invitrogen). Type of test: biochemical. Particulars: compound at 100 nM, ATP Km apparent, read-out: % of inhibition of the kinase compared to the control. The method in brief:
(§2)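 Compounds were tested at 100 nM in 1% DMSO, in 50 mM HEPES pH 7.5 buffer with MgCl2, EGTA and BRIJ-35, and ATP at its predetermined apparent Km. Inhibition was derived from the coupled-enzyme FRET emission ratio, which reflects protease-resistant phosphorylated peptide.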

Test [9] concerns the target T2, PDGFRA (PDGFR alpha) (Homo sapiens, UniProt P16234).
T2 construct: purchased Invitrogen
Briefly: In vitro kinase assay (Z'-LYTE, Invitrogen). Type of test: biochemical. Particulars: compound at 100 nM, ATP Km apparent, read-out: % of inhibition of the kinase compared to the control. The method in brief: as §2

The target in test [10] is T3, KDR (VEGFR2) (Homo sapiens, UniProt P35968).
T3 construct: purchased Invitrogen
Briefly: In vitro kinase assay (Z'-LYTE, Invitrogen). Format: biochemical. Particulars: compound at 100 nM, ATP Km apparent, read-out: % of inhibition of the kinase compared to the control. The method in brief:
as §2

Test [11] has as its target T4, EGFR (ErbB1) (Homo sapiens, UniProt P00533).
T4 construct: purchased Invitrogen
Briefly: In vitro kinase assay (Z'-LYTE, Invitrogen). Type of test: biochemical. Particulars: compound at 100 nM, ATP Km apparent, read-out: % of inhibition of the kinase compared to the control. The method in brief: as §2

The target in test [12] is T5, EGFR (ErbB1) T790M L858R (Homo sapiens, UniProt P00533, L858R/T790M).
T5 construct: purchased Invitrogen
Briefly: In vitro kinase assay (Z'-LYTE, Invitrogen). Type of test: biochemical. The following applies: compound at 100 nM, ATP Km apparent, read-out: % of inhibition of the kinase compared to the control. The method in brief:
as §2

For test [13], the target named is T6, FGFR2 (Homo sapiens, UniProt P21802).
T6 construct: purchased Invitrogen
Briefly: In vitro kinase assay (Z'-LYTE, Invitrogen). Format: biochemical. Particulars: compound at 100 nM, ATP Km apparent, read-out: % of inhibition of the kinase compared to the control. The method in brief: as §2

The target of test [14] is T7, SRC (Homo sapiens, UniProt P12931).
T7 construct: purchased Invitrogen
Briefly: In vitro kinase assay (Z'-LYTE, Invitrogen). Type of test: biochemical. The following applies: compound at 100 nM, ATP Km apparent, read-out: % of inhibition of the kinase compared to the control. The method in brief: as §2

Test [15] has as its system H1975 cell line. Briefly: In vitro cell proliferation assay (MTT). Type of test: cell-based. The following applies: Homo sapiens, NCI-H1975, H1975, 72 hr, read-out: EC50, anti-proliferative activity. The method in brief:
as §1

In test [16] the test system is MDA-MB-231 cell line. Briefly: In vitro cell proliferation assay (MTT). Type of test: cell-based. Particulars: Homo sapiens, MDA-MB-231, 72 hr, EC50 ≧ 1 μM, read-out: EC50, anti-proliferative activity. The method in brief:
as §1

T4 sequence (P00533 25-1210): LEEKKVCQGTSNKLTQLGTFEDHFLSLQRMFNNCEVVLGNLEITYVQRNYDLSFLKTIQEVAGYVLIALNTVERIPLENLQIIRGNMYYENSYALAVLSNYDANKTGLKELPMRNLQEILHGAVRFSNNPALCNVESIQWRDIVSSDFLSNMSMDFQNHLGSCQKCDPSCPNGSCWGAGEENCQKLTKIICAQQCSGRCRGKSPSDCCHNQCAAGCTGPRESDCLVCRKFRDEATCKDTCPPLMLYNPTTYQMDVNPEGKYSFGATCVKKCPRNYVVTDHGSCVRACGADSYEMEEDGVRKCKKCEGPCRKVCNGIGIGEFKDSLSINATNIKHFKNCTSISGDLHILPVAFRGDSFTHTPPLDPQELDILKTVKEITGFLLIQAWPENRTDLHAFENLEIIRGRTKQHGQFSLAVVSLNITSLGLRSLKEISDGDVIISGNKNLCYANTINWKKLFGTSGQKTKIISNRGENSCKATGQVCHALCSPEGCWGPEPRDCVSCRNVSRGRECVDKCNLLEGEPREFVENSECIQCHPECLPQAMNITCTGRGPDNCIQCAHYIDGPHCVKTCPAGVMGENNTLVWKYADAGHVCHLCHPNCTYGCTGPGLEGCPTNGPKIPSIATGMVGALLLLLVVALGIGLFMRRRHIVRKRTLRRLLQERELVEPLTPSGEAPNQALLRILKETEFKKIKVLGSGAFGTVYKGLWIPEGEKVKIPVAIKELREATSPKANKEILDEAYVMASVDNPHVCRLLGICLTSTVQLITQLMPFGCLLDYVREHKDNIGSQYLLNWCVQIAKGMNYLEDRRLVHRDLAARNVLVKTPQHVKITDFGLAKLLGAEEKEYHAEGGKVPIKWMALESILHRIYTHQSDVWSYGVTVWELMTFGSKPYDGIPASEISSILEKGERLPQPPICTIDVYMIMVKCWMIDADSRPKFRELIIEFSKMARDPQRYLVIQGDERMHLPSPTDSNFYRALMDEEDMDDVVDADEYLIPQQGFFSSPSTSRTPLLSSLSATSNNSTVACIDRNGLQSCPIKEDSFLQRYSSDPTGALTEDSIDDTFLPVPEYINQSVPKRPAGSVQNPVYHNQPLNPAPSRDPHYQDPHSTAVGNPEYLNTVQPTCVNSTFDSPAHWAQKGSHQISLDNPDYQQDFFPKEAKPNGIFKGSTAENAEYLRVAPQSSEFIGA
T5 sequence (P00533 25-1210 T790M/L858R): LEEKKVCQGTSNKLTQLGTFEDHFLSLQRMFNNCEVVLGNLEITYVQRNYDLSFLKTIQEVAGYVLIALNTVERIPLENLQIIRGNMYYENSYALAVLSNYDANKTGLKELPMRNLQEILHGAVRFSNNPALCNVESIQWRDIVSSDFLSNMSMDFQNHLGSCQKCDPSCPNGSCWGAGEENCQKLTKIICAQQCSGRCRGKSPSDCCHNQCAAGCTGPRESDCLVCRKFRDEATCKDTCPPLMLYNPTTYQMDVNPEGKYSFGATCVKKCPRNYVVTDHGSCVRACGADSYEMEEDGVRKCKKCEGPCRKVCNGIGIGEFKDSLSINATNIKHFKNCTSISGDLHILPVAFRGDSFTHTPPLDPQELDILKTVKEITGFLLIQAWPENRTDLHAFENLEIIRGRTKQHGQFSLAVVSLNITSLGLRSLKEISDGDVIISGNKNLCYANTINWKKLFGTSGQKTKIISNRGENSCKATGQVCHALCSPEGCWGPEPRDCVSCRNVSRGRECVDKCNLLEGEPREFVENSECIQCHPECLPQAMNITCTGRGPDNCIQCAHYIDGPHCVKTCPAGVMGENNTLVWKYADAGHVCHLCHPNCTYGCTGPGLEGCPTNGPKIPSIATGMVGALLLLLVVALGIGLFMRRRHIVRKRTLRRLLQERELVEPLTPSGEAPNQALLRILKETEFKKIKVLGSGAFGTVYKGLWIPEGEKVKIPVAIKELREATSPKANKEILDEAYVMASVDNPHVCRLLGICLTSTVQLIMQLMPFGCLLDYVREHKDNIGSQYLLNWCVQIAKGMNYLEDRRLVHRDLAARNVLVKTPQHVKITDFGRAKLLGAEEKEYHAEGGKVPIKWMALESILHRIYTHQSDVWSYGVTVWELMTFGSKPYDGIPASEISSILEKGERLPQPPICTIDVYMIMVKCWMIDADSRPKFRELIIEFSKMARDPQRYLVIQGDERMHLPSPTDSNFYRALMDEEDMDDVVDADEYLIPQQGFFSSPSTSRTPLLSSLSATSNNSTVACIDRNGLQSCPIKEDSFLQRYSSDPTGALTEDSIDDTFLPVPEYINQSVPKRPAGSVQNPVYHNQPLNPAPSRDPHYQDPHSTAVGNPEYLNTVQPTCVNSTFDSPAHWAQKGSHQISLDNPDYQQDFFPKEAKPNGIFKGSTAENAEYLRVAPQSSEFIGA
T1 sequence (P15056 whole entry): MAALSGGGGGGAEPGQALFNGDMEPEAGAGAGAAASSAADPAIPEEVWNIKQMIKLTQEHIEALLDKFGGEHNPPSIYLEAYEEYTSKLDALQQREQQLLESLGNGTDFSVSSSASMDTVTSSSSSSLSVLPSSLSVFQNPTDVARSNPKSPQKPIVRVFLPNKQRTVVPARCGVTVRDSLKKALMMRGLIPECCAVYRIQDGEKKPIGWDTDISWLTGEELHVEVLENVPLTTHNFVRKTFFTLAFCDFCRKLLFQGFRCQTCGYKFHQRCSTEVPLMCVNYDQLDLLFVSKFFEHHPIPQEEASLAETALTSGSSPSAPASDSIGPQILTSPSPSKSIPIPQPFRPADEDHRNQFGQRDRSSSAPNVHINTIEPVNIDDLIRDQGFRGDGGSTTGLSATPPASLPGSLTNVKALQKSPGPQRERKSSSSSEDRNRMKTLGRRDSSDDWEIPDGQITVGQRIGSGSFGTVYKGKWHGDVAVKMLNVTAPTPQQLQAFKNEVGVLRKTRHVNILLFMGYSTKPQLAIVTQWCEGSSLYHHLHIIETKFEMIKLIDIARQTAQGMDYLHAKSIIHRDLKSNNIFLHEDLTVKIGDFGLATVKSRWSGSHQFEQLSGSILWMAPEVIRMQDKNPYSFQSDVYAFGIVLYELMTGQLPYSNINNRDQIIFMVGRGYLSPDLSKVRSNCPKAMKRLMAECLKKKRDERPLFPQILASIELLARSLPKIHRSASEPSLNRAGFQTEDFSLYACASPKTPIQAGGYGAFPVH
T3 sequence (P35968 20-1356): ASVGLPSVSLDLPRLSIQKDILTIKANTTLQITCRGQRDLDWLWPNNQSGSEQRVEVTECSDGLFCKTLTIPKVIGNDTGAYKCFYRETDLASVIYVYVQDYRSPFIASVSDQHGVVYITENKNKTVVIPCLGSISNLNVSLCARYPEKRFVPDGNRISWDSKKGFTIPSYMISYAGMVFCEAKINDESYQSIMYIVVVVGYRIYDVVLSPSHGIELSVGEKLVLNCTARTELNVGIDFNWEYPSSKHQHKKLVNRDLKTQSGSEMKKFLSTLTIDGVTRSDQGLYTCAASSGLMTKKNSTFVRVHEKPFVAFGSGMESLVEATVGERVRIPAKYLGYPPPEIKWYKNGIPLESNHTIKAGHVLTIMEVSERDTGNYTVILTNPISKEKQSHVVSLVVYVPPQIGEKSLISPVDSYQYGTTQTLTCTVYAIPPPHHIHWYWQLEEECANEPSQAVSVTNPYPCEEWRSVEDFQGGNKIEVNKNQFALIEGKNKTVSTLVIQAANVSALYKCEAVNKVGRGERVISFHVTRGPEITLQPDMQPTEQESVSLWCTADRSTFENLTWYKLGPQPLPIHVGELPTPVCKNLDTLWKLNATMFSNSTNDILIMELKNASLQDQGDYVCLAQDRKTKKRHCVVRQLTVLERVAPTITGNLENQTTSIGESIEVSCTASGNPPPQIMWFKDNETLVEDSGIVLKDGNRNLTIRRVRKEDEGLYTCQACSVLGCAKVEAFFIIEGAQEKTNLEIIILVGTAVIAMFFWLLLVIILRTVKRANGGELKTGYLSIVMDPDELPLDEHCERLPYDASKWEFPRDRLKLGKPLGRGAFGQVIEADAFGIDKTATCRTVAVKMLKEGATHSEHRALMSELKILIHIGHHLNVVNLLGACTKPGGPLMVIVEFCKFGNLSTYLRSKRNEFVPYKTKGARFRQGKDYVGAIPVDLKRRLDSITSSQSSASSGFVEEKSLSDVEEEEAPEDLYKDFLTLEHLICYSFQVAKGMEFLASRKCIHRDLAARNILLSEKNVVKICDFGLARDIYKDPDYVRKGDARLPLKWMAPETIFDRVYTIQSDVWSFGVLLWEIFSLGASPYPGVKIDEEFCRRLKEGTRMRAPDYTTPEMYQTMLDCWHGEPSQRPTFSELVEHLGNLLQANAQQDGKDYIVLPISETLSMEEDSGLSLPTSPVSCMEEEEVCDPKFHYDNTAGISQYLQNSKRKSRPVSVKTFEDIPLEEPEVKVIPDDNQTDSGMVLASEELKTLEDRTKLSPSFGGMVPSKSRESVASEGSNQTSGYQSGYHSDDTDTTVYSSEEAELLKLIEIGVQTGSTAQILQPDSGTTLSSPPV
T7 sequence (P12931 whole entry): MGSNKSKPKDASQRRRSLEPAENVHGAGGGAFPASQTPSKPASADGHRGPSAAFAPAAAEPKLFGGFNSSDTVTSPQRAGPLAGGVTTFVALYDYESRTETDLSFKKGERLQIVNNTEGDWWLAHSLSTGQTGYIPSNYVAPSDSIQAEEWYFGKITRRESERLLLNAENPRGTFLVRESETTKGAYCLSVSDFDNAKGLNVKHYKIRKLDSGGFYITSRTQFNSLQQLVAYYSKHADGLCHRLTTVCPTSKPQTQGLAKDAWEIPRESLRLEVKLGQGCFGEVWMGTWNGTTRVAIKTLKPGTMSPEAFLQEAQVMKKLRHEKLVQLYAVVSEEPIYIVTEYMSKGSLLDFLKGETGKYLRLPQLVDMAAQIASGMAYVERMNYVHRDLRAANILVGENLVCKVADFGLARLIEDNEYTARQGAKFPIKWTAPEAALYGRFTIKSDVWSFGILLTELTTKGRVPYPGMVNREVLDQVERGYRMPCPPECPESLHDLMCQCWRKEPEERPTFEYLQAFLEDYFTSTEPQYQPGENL

As to `C#Cc1cccc(Nc2ncnc3cc(OCCOC)c(OCCOC)cc23)c1` [Erlotinib, reference compound], the EC50 in test [1], in test [2] and in [3] (EC50 ≧ 1 μM) was not below 1000 nM throughout.

Turning to `COC(=O)c1cc2cc(CCc3cc(NC(=O)c4ccc(CN5CCC(N(C)C)C5)c(C(F)(F)F)c4)ccc3C)cnc2[nH]1` (centres unmarked) [OR0775, 5-(2-{5-[4-(3-Dimethylamino-pyrrolidin-1-ylmethyl)-3-trifluoromethyl-benzoylamino]-2-methyl-phenyl}-ethyl)-1H-pyrrolo[2,3-b]pyridine-2-carboxylic acid methyl ester], the EC50 was 100 to 1000 nM in [4] (100 nM < EC50 < 1 μM); not below 1000 nM in [5] (EC50 ≧ 1 μM); 100 to 1000 nM in test [3] (100 nM < EC50 < 1 μM); not below 1000 nM in [6] (EC50 ≧ 1 μM); not below 1000 nM in test [7] (EC50 ≧ 1 μM). Besides, the inhibition at 0.1 µM in [8], in [9], in test [10], in [11], in [12] and in [13] was not below 50% each time. For the same compound, the inhibition at 0.1 µM in test [14] was not below 50%.

As to `COC(=O)c1cc2cc(C=Cc3cc(NC(=O)c4ccc(CN5CCN(C)CC5)c(C(F)(F)F)c4)ccc3C)cnc2[nH]1` [OR0777, 5-(-2-{2-Methyl-5-[4-(4-methyl-piperazin-1-ylmethyl)-3-trifluoromethyl-benzoylamino]-phenyl}-vinyl)-1H-pyrrolo[2,3-b]pyridine-2-carboxylic acid methyl ester], the EC50 in [15] (EC50 ≧ 1 μM) is not below 1000 nM; in test [4] (100 nM < EC50 < 1 μM), 100 to 1000 nM; in [1] it was not below 1000 nM; in test [2] it was not below 1000 nM; in [5] (100 nM < EC50 < 1 μM), 100 to 1000 nM; in test [3] (100 nM < EC50 < 1 μM) it was 100 to 1000 nM. For the same compound, the EC50 in test [6] (100 nM < EC50 < 1 μM) and in test [7] (100 nM < EC50 < 1 μM) was 100 to 1000 nM in each case. In addition, the inhibition at 0.1 µM was less than 50% in test [8]; not below 50% in [9]; not below 50% in [10]; not below 50% in test [11]; less than 50% in test [12]; not below 50% in test [13]. For the same compound, the inhibition at 0.1 µM in [14] is not below 50%.

`COC(=O)c1cc2cc(C=Cc3cc(NC(=O)c4ccc(CN5CCC(N(C)C)C5)c(C(F)(F)F)c4)ccc3C)cnc2[nH]1` (centres unmarked) [OR0778, 5-(2-{5-[4-(3-Dimethylamino-pyrrolidin-1-ylmethyl)-3-trifluoromethyl-benzoylamino]-2-methyl-phenyl}-vinyl)-1H-pyrrolo[2,3-b]pyridine-2-carboxylic acid methyl ester]: the EC50 in test [4] (EC50 ≧ 1 μM), in test [5] (EC50 ≧ 1 μM), in test [3] (EC50 ≧ 1 μM), in [6] (EC50 ≧ 1 μM), in [16] and in [7] (EC50 ≧ 1 μM) was not below 1000 nM in each case. Also, the inhibition at 0.1 µM was less than 50% in test [8]; not below 50% in [9]; not below 50% in test [10]; not below 50% in test [11]; less than 50% in test [13]; not below 50% in test [14].

Regarding `COC(=O)c1cc2cc(COc3cc(NC(=O)c4ccc(CN5CCC(N(C)C)C5)c(C(F)(F)F)c4)ccc3C)cnc2[nH]1` (centres unmarked) [OR0750, 5-{5-[4-(3-Dimethylamino-pyrrolidin-1-ylmethyl)-3-trifluoromethyl-benzoylamino]-2-methyl-phenoxymethyl}-1H-pyrrolo[2,3-b]pyridine-2-carboxylic acid methyl ester], the EC50 is 100 to 1000 nM in test [15] (100 nM < EC50 < 1 μM); not below 1000 nM in test [1]; not below 1000 nM in test [2]; not below 1000 nM in [5] (EC50 ≧ 1 μM); 100 to 1000 nM in [3] (100 nM < EC50 < 1 μM); not below 1000 nM in [7] (EC50 ≧ 1 μM). In addition, the inhibition at 0.1 µM in test [8] is less than 50%; in test [9], not below 50%; in test [10], not below 50%; in [11] it was not below 50%; in [12] it was less than 50%; in test [13], not below 50%. For the same compound, the inhibition at 0.1 µM in test [14] was not below 50%.

With `COC(=O)c1cc2cc(CNc3cc(NC(=O)c4ccc(CN5CCN(C)CC5)c(C(F)(F)F)c4)ccc3C)cnc2[nH]1` [OR0747, 5-({2-Methyl-5-[4-(4-methyl-piperazin-1-ylmethyl)-3-trifluoromethyl-benzoylamino]-phenylamino}-methyl)-1H-pyrrolo[2,3-b]pyridine-2-carboxylic acid methyl ester], the EC50 in test [15] (EC50 ≧ 1 μM) is not below 1000 nM; in [1], not below 1000 nM; in test [2], not below 1000 nM; in test [5] (EC50 ≧ 1 μM) it was not below 1000 nM; in test [3] (100 nM < EC50 < 1 μM) it was 100 to 1000 nM; in test [7] (EC50 ≧ 1 μM) it was not below 1000 nM. In addition, the inhibition at 0.1 µM in test [8] was less than 50%; in [9], not below 50%; in test [10], not below 50%; in [11] it was not below 50%; in test [12] it was less than 50%; in test [13], not below 50%. The inhibition at 0.1 µM in test [14] is not below 50%.

In the case of `COC(=O)c1cc2cc(CNc3cc(NC(=O)c4ccc(C)cc4)ccc3C)cnc2[nH]1` [OR0738, 5-{[2-Methyl-5-(4-methyl-benzoylamino)-phenylamino]-methyl}-1H-pyrrolo[2,3-b]pyridine-2-carboxylic acid methyl ester], the EC50 in test [15] (EC50 ≧ 1 μM), in test [1], in [2], in test [5] (EC50 ≧ 1 μM), in test [3] (EC50 ≧ 1 μM) and in test [7] (EC50 ≧ 1 μM) was not below 1000 nM in each case. The inhibition at 0.1 µM in test [8], in [9], in [10], in test [11], in [12] and in test [13] was less than 50% each time. Also, the inhibition at 0.1 µM in [14] is less than 50%.

`CC(=O)c1cc2cc(CCc3cc(NC(=O)c4ccc(CN5CCN(C)CC5)cc4)ccc3C)cnc2[nH]1` [OR0799, N-{3-[2-(2-Acetyl-1H-pyrrolo[2,3-b]pyridin-5-yl)-ethyl]-4-methyl-phenyl}-4-(4-methyl-piperazin-1-ylmethyl)-benzamide]: the EC50 in [4] (100 nM < EC50 < 1 μM) was 100 to 1000 nM; in [5] (100 nM < EC50 < 1 μM), 100 to 1000 nM; in test [3] (100 nM < EC50 < 1 μM) it was 100 to 1000 nM; in test [6] (EC50 ≧ 1 μM) it was not below 1000 nM; in test [7] (EC50 ≧ 1 μM), not below 1000 nM. The inhibition at 0.1 µM was not below 50% in [8]; not below 50% in [9]; not below 50% in test [10]; not below 50% in test [11]; less than 50% in test [13]; not below 50% in test [14].
